What was measured:
[1] = tested on: LPS rat models of Parkinson's disease; experiment: Elevated plus maze; assay type: in vivo
Excerpt: Method. The elevated plus maze is a widely used behavioral assay for rodents that makes it possible to assess sedative or anxiogenic effects of agents and to define mechanisms underlying anxiety-related behavior, as well as to evaluate the motor activity of rats and levels of their exploratory activity that may correlate with the data collected in the open field test. Campos A C, et al., Braz J Psychiatry. 2013; 35 Suppl 2:S101-11. doi: 10.1590/1516-4446-2013-1139; Braun A A, et al., Neurobiol Learn Mem. 2012; 97(4):402-8. doi: 10.1016/j.nlm.2012.03.004). Behavior was assessed according to the following main parameters: the total distance travelled, the number of entries into each arm, the time spent in each arm, the total number of entries and percent of entries. […] Throughout the experiment, animals had free access to food and water. Before starting measurements, animals were given time to adapt to new an environment to reduce stress.
The entire apparatus was elevated 50 cm above the floor. The central part of the junction was a 10 cm square center region where an animal was started facing an open arm. The apparatus was illuminated by two LED bulbs, 60 watts each, hanging at a height of 2 m. An IP camera was used to record the location of rats and scoring was completed later using the MATLAB-based software. The statistical analysis was performed using GraphPad Prism. Significance was set at <0.005. The data collected from the open field were analyzed using One-way ANOVA (Tukey test or Dunnett test) and Unpaired t-test or Mann-Whitney.
Data analysis and interpretation. The test is based on the natural aversion of rats for open areas and their preference for closed areas of the apparatus. The levels of anxiety in animals are assessed as the total time spent in the open and closed arms. Animals that spend more time in the open arms have lower levels of anxiety compared to animals that prefer closed arms. In addition, like in an open field test, a novel environment in which an animal finds itself evokes conflict between fear and a desire to explore this environment. Therefore, the data collected from these two tests may correlate in the distance travelled and the time spent in the outer and inner perimeter. It is considered normal if during a 5-minute test, animals spend most of their time in the closed arms but also make a few entries to the open arms to explore. Accordingly, an increase in open arm entries is interpreted as a decreased anxiety in the animal. FIG. 51A and FIG. 51B show an example of analysis of a rat trajectory in the experimental arena.
(§1) On the 1st day of the experiment, rats were either operated to model hemi-parkinsonism or sham operated. From the 9th to the 18th day of the experiment, the animals were injected either deuterium-depleted water or the test substance, according to their allocation into groups, for 10 days. On the 8th day of the experiment (before initiation of treatment—apomorphine test I) and on the 21st day of the experiment (after the end of administering the test substance —apomorphine test II) the animals underwent an apomorphine test to analyze the development of hemi-parkinsonism which correlates with the number of destroyed dopaminergic neurons. In addition, a follow-up analysis of fecal water content was carried out, i.e., before the start of treatment on the 8th day after the operation, as well as on the 21st (after the end of treatment) and the 28th day (before autopsy). On the 24th day of the experiment, behavioral tests were carried out in all groups. All animals were weighed before autopsy.

peritoneal macrophages = experiment: Metabolic profile of nonsensitized mouse peritoneal macrophages in vitro; assay type: cell-based, mice of c57/B6 line; design: spontaneous production of reactive nitrogen species by PM: dose or concentration left out as unconfirmed
Procedure: Materials and methods: Peritoneal macrophages (PM) were isolated from the peritoneal cavity of male mice of c57/B6 line with an average body weight of 22 g without previous sensibilization. The metabolic profile of phagocytes was characterized by the arginine metabolic pathway (by the levels of arginase activity and NO synthesis measured using photocolorimetric methods), the level of formation of intracellular reactive oxygen species (ROS) by esterases and phagocytic activity measured using flow cytometry as well as the levels of NADH and NADPH oxidase activation, as determined in the NBT test. Duration of treatment of a standardized suspension of nonsensitized macrophages from the peritoneal cavity varied depending on the methodological characteristics of metabolic response. A 90 minute exposure to the drugs according to Kim D K, Pfeifer J. Surg Forum. 1977; 28:85-7 was used to analyze their effects on oxidative metabolism and phagocytic activity. An 18 hour exposure according to Lastra M D, et al., J Trace Elem Med Biol. 2001; 15(1):5-10 was used to analyze the effects on arginine metabolic pathway. To analyze the effects of the drugs under study on the induced (stimulated) metabolic activity of phagocytes, the cells were treated with lipopolysaccharide (LPS) from E. coli (Sigma, USA) according to Haddad J J. Mol Immunol. 2009; 47(2-3):205-14. doi: 10.1016/j.molimm.2009.09.034.

circulating leukocytes = experiment: Blood count values in LPS rat models; assay type: in vivo; conditions: day 28
Procedure: as §1, with “autopsy. […]” for “autopsy.”
The blood count values were analyzed at the completion of the experiment (day 28). The absolute number of leukocytes, as well as the absolute and relative numbers of lymphocytes, monocytes and neutrophilic granulocytes were calculated.

**Q.** Which “Number of entries into closed arms” value ([1]; LPS + ^64Zn-asp, Gr. V) does the source give for “^64Zn-enriched zinc aspartate [^64Zne-asp]” here?
**A.** 6.1 ± 8.279

**Q.** And the “Number of entries into open arms” value ([1]; LPS + ^64Zn-asp, Gr. V)?
**A.** 6.1 ± 8.279

**Q.** And the “Time spent in closed arms” value ([1]; LPS + ^64Zn-asp, Gr. V)?
**A.** 243.3 ± 54.2 s

**Q.** And the “Time spent in open arms” value ([1]; LPS + ^64Zn-asp, Gr. V)?
**A.** 17.55 ± 24.48 s

**Q.** What about the “Total distance travelled, cm” value ([1]; LPS + ^64Zn-asp, Gr. V) of the same substance?
**A.** 396.8 ± 107.7 cm

**Q.** What about the “Total number of entries” value ([1]; LPS + ^64Zn-asp, Gr. V) of the same substance?
**A.** 13 ± 16.66

**Q.** And the “behavioral parameters in the elevated plus maze (in words)” value ([1]; group V (LPS+^64Zn-asp) versus group IV (LPS))?
**A.** had not produced any effects

**Q.** And the “increase of number of entries” value ([1]; group V versus group IV (LPS))?
**A.** 1.3 times

**Q.** And the “increase of total distance travelled” value ([1]; group V versus group IV (LPS))?
**A.** 1.2 times

**Q.** And the “ROS generation compared with LPS treatment” value (peritoneal macrophages; 10 μg/ml, 90 min)?
**A.** more expressive stimulation

**Q.** And the “NO synthesis by bacterial LPS-stimulated PM” value (peritoneal macrophages; 18-hour exposure)?
**A.** statistically significant reduction

**Q.** And the “spontaneous production of reactive nitrogen species by PM” value (peritoneal macrophages; 18-hour exposure)?
**A.** statistically significant inhibition

**Q.** What about the “arginase activity of PM” value (peritoneal macrophages; 18-hour treatment) of the same substance?
**A.** multidirectional weak effect

**Q.** What about the “phagocytic activity of nonsensitized PM” value (peritoneal macrophages; 90 min exposure) of the same substance?
**A.** did not have a significant effect

**Q.** What about the “spontaneous and LPS-stimulated ROS production by macrophages” value (peritoneal macrophages; 90 min treatment) of the same substance?
**A.** moderate stimulating effect

**Q.** And the “spontaneous or induced activation of NADH and NADPH oxidases (NBT test)” value (peritoneal macrophages; 90 min treatment)?
**A.** did not have a statistically significant effect

**Q.** What about the “absolute number of circulating leukocytes” value (circulating leukocytes) of the same substance?
**A.** did not influence

Source: patent US11779597B2, “Method of treating Parkinson's and other neurodegenerative diseases” (Vector Vitale IP LLC, priority 2019, dated 2023)
